This note sets out measurements from patent US20230020507A1, “COMPOUND AND USE THEREOF IN TREATING AUTOIMMUNE DISEASES” (PARENCHYMA BIOTECH INC., priority 2019, published 2023).

SMILES strings stand for the structures.

What all share (assay type): in vivo, mouse
In experiment [1] the test system is C57BL/6 mice with DSS-induced inflammatory bowel disease. Briefly: Mucosal healing (intestinal epithelial barrier integrity) with FITC-dextran in DSS mice. The conditions noted are these: oral daily 2nd to 9th day, 10th day, 4 hours after FITC-dextran, compared to solvent control. More on the design: dose or concentration left out as unconfirmed. An excerpt: The 1.5% DSS solution was changed at an interval of 2 days. Sterile distilled water was provided for drinking from the 8th day of the experiment.

The test system of experiment [2] is C57BL/6 mice with autoimmune encephalomyelitis (EAE). As to the kind of experiment: Experimental autoimmune encephalomyelitis (EAE) model of multiple sclerosis, severity index. The conditions noted are these: 20 mg/kg intraperitoneally daily 12th to 17th day. Here is the method: On day 0, myelin oligodendrocyte glycoproteins 35-55 (MOG 35-55, Peptron) (200 μg), heat-killed Mycobacterium tuberculosis (Difco, Cat No. 231141) (500 μg), and adjuvant (Complete Freund's adjuvant, Sigma Aldrich, Cat No. F5506) were mixed together and then submerged for 7 minutes. After subcutaneous injection of 100 μl of the submerged peptide into both flanks of each of C57BL/6 mice (7 weeks old, female, 17±2 g), 100 μl of pertussis toxin (Sigma Aldrich. Cat No. P2980) (200 ng) was administered intravenously to the tail.
On the 2nd day of the experiment, the same amount of pertussis toxin was administered intravenously. The mice were checked for immersion leaking from the injected site, and visually observed from the 7th day of the experiment in order to confirm the onset of multiple sclerosis.
The multiple sclerosis index was visually observed and recorded at an interval of 2 days from the 7th day of the experiment in the severity index system classified into 0-5 stages, and autoimmune encephalomyelitis symptoms were indexed according to the following items (see Table 4).

The test system of experiment [3] is IFN-γ, IL-17A, IL-1β, IL-10 and Foxp3 expression in spinal cord lesions. Briefly: mRNA expression of inflammatory and immunomodulatory factors in spinal cord of EAE mice (real-time PCR). The settings on record: 20 mg/kg i.p., 42nd day, compared to solvent control. An excerpt:
On the 42nd day of the experiment, the spinal cord of the mouse was excised to prepare an mRNA sample. In order to extract mRNA, the spinal cord tissue was ground with a homogenizer to obtain a homogeneous suspension. […] Then, cDNA was synthesized from the isolated RNA by reverse transcription, and the expression of inflammatory cytokines was investigated through real-time polymerase chain reaction (PCR) using iQ SYBR-Green Supermix (Bio-rad) in the CFX96 (Bio-rad) detection system. Relative values of the enzyme expression levels were compared by the ΔΔct method using GAPDH as a control enzyme. Herein, one (1) fold was set using the WT mouse spinal cord as a control.
The real-time polymerase chain reaction was implemented under the conditions of cycles at an annealing temperature of 58° C., and the following primer sequences were used.

Where [4] appears, read: scale 0-5, solvent control 3.33±0.17.

On to `O=C(Cc1c[nH]c2ccc(Cl)cc12)Nc1ccc(Cl)c(F)n1` [Compound 26, 2-(5-chloro-1H-indol-3-yl)-N-(5-chloro-6-fluoropyridin-2-yl)acetamide], for which the “Serum FITC-dextran” value in experiment [1] is on record as “significantly reduced”. The “treatment effects on EAE severity index compared to solvent control from the 16th day, maintained after administration was stopped” value in experiment [2] is “statistically significant treatment effects”. Moreover, in experiment [2] (setting [4]), the “severity index (EAE), 18th day, acute reaction period” value stood at 1.33±0.56 and the “severity index (EAE), 36th day, chronic reaction period” value is on record as 1.33±0.22. For the same compound, in experiment [3], the “expression level of Foxp3 in spinal cord lesions” value is “significantly increased”, the “expression level of IFN-γ in the spinal cord lesion” value is listed as “significantly reduced”, the “expression level of IL-1β in the spinal cord lesion” value is listed as “significantly reduced” and the “expression level of IL-10 in spinal cord lesions” value is reported as “significantly increased”. Besides, the “expression level of IL-17A in the spinal cord lesion” value in experiment [3] was “significantly reduced”.
